Assay results from ChEMBL document CHEMBL1201862, “PubChem BioAssay data set” (2004).
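Grown in 96-well plates, cells were treated for 48 hours with each compound at five concentrations. Insufficient inhibition: endpoint recorded as highest concentration tested. Abbreviation: GI50, concentration required for 50% inhibition of growth.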 Calls of active or inactive are those of the source. No stated cut-off is given here; in the data, active = GI50 up to about 1.1 µM and inactive = higher.

Assays:
Experiment in all cases: NCI tumour cell line growth inhibition, 48 h
[1] = tested on: EKVX
[2] = tested on: U-251
[3] = tested on: A498
[4] = tested on: SNB-75
[5] = tested on: SN12C
[6] = tested on: Malme-3M
[7] = tested on: SNB-19
[8] = tested on: ACHN
[9] = tested on: MOLT-4
[10] = tested on: HCT-15
[11] = tested on: SF-539
[12] = tested on: 786-0
[13] = tested on: MDA-MB-435
[14] = tested on: NCI-H226
[15] = tested on: SK-OV-3
[16] = tested on: SR
[17] = tested on: OVCAR-4
[18] = tested on: MDA-N
[19] = tested on: SK-MEL-5
[20] = tested on: HCC 2998

Compound | GI50 [1] | GI50 [2] | GI50 [3] | GI50 [4] | GI50 [5] | GI50 [6] | GI50 [7] | GI50 [8] | GI50 [9] | GI50 [10] | GI50 [11] | GI50 [12] | GI50 [13] | GI50 [14] | GI50 [15] | GI50 [16] | GI50 [17] | GI50 [18] | GI50 [19] | GI50 [20]
C=CCSc1nc2c(N)ncnc2n1C1OC(CO)C(O)C1O (centres undefined) | > 100 µM (inactive) | > 100 µM (inactive) | > 100 µM (inactive) | > 100 µM (inactive) | > 100 µM (inactive) | > 100 µM (inactive) | > 100 µM (inactive) | > 100 µM (inactive) | > 100 µM (inactive) | > 100 µM | > 100 µM (inactive) | > 100 µM (inactive) | > 100 µM (inactive) | > 100 µM (inactive) | > 100 µM (inactive) | > 100 µM (inactive) | > 100 µM (inactive) | > 100 µM (inactive) | > 100 µM (inactive) | –
CS(=O)(=O)OCCN1CCC2(CC1)SSC1(CCN(CCOS(C)(=O)=O)CC1)S2 | – | 72.6 µM (inactive) | 0.352 µM (active) | 99.1 µM (inactive) | 43 µM (inactive) | 22.8 µM (inactive) | 69.3 µM (inactive) | 33.5 µM (inactive) | 31.8 µM (inactive) | > 100 µM | 27.7 µM (inactive) | 56.9 µM (inactive) | > 100 µM (inactive) | – | 64.4 µM (inactive) | 14.1 µM (inactive) | 62.1 µM (inactive) | 75.5 µM (inactive) | 16.1 µM (inactive) | –
O=C(O)C/C(=C\c1ccco1)C(=O)O | > 100 µM (inactive) | > 100 µM (inactive) | > 100 µM (inactive) | > 100 µM (inactive) | > 100 µM (inactive) | > 100 µM (inactive) | > 100 µM (inactive) | > 100 µM (inactive) | > 100 µM (inactive) | > 100 µM | > 100 µM (inactive) | > 100 µM (inactive) | > 100 µM (inactive) | > 100 µM (inactive) | > 100 µM (inactive) | > 100 µM (inactive) | > 100 µM (inactive) | > 100 µM (inactive) | > 100 µM (inactive) | –
O=C1C2CC=CCC2C(=O)N1n1c(Cc2ccc(Cl)cc2)n[nH]c1=O (centres undefined) | > 100 µM (inactive) | > 100 µM (inactive) | > 100 µM (inactive) | > 100 µM (inactive) | > 100 µM (inactive) | > 100 µM (inactive) | – | > 100 µM (inactive) | > 100 µM (inactive) | > 100 µM | – | > 100 µM (inactive) | > 100 µM (inactive) | > 100 µM (inactive) | > 100 µM (inactive) | > 100 µM (inactive) | > 100 µM (inactive) | > 100 µM (inactive) | > 100 µM (inactive) | > 100 µM (inactive)
c1ccc2cc(NCNc3ccc4ccccc4c3)ccc2c1 | 14.6 µM (inactive) | 23.3 µM (inactive) | 19.9 µM (inactive) | 13.2 µM (inactive) | 9.53 µM (inactive) | 0.927 µM (active) | 28.1 µM (inactive) | 16.3 µM (inactive) | 0.785 µM (active) | 15.6 µM | 29.3 µM (inactive) | 17.3 µM (inactive) | 1.78 µM (inactive) | 17.2 µM (inactive) | 33.6 µM (inactive) | 2.42 µM (inactive) | 12.5 µM (inactive) | 4.33 µM (inactive) | 6.25 µM (inactive) | –
CNC(=O)c1cc(NC(=O)N(CCC#N)CCN(C(=O)N[C@@H](Cc2ccccc2)C(=O)N[C@@H](CC(C)C)C(=O)NC)c2ccccc2)ccc1OC | > 100 µM (inactive) | > 100 µM (inactive) | > 49.5 µM (inactive) | 49.3 µM (inactive) | > 51.6 µM (inactive) | 17.3 µM (inactive) | > 59.2 µM (inactive) | > 74.8 µM (inactive) | 49.4 µM (inactive) | > 100 µM | 36 µM (inactive) | > 55.2 µM (inactive) | > 100 µM (inactive) | > 100 µM (inactive) | > 100 µM (inactive) | 21 µM (inactive) | > 100 µM (inactive) | > 100 µM (inactive) | 29.9 µM (inactive) | –
C=CCSC1=N/C(=C\c2ccc(OC)cc2)C(=O)N1CC=C | 19.7 µM (inactive) | 24.3 µM (inactive) | 14.9 µM (inactive) | – | 24.1 µM (inactive) | 27.7 µM (inactive) | 84.3 µM (inactive) | 33.3 µM (inactive) | 13.7 µM (inactive) | 20.8 µM | 36.6 µM (inactive) | 25.5 µM (inactive) | 26.4 µM (inactive) | – | > 100 µM (inactive) | 13.5 µM (inactive) | 28.2 µM (inactive) | 23.2 µM (inactive) | 15.6 µM (inactive) | 23.9 µM (inactive)
CCc1n[nH]c(=O)n1O | > 100 µM (inactive) | > 100 µM (inactive) | > 100 µM (inactive) | – | > 100 µM (inactive) | > 100 µM (inactive) | > 100 µM (inactive) | > 100 µM (inactive) | > 100 µM (inactive) | – | > 100 µM (inactive) | > 100 µM (inactive) | > 100 µM (inactive) | > 100 µM (inactive) | > 100 µM (inactive) | > 100 µM (inactive) | > 100 µM (inactive) | > 100 µM (inactive) | > 100 µM (inactive) | –
O=C1Nc2ccccc2S/C1=C\c1ccc(C(F)(F)F)cc1 | 55.1 µM (inactive) | > 100 µM (inactive) | > 100 µM (inactive) | 37.1 µM (inactive) | > 100 µM (inactive) | > 100 µM (inactive) | > 100 µM (inactive) | > 100 µM (inactive) | > 100 µM (inactive) | > 100 µM | > 100 µM (inactive) | > 100 µM (inactive) | > 100 µM (inactive) | > 100 µM (inactive) | > 100 µM (inactive) | > 100 µM (inactive) | > 100 µM (inactive) | > 100 µM (inactive) | > 100 µM (inactive) | –
COC(=O)NC(C(F)(F)F)(C(F)(F)F)P1(=O)OCCCO1 | – | 13.1 µM (inactive) | 17 µM (inactive) | 47.6 µM (inactive) | 34.8 µM (inactive) | – | 25.5 µM (inactive) | 21.4 µM (inactive) | 17.1 µM (inactive) | 22.8 µM | 21.1 µM (inactive) | 36.9 µM (inactive) | 17.2 µM (inactive) | 16.2 µM (inactive) | 18.9 µM (inactive) | 20.7 µM (inactive) | 32.6 µM (inactive) | 23.2 µM (inactive) | 17.6 µM (inactive) | –
Cc1ccc(S(=O)(=O)C2=C([Si](C)(C)C)C3CC2[C@@H]2C4C=CC(CC4)[C@H]32)cc1 (some centres undefined) | > 100 µM (inactive) | 23.9 µM (inactive) | > 100 µM (inactive) | – | > 100 µM (inactive) | > 100 µM (inactive) | 23.8 µM (inactive) | 99.5 µM (inactive) | > 100 µM (inactive) | > 100 µM | 25.6 µM (inactive) | 34.6 µM (inactive) | > 100 µM (inactive) | 95.3 µM (inactive) | 45.1 µM (inactive) | > 100 µM (inactive) | > 100 µM (inactive) | > 100 µM (inactive) | > 100 µM (inactive) | > 100 µM (inactive)
COc1ccc(-n2cnc3c(NC(CCSC)C(=O)O)ncnc32)cc1 (centres undefined) | > 100 µM (inactive) | > 100 µM (inactive) | > 100 µM (inactive) | > 100 µM (inactive) | > 100 µM (inactive) | – | > 100 µM (inactive) | > 100 µM (inactive) | > 100 µM (inactive) | > 100 µM | – | > 100 µM (inactive) | > 100 µM (inactive) | > 100 µM (inactive) | > 100 µM (inactive) | > 100 µM (inactive) | > 100 µM (inactive) | > 100 µM (inactive) | > 100 µM (inactive) | > 100 µM (inactive)
O=c1[nH]cc(/N=C/c2cc(Cl)ccc2O)c(=O)[nH]1 | 32.1 µM (inactive) | 8.05 µM (inactive) | > 100 µM (inactive) | – | 9.04 µM (inactive) | 25.1 µM (inactive) | 20.7 µM (inactive) | 13.7 µM (inactive) | 3.88 µM (inactive) | 2.22 µM | 1.89 µM (inactive) | 22 µM (inactive) | 29.1 µM (inactive) | 19.2 µM (inactive) | 18.7 µM (inactive) | 1.85 µM (inactive) | 2.18 µM (inactive) | 37.8 µM (inactive) | 20.1 µM (inactive) | 23.6 µM (inactive)
N#Cc1c(-c2ccc([N+](=O)[O-])cc2)c2c([nH]c1=O)-c1ccccc1CCC2 | > 100 µM (inactive) | 52.5 µM (inactive) | 46.3 µM (inactive) | – | > 100 µM (inactive) | 56.6 µM (inactive) | 70.1 µM (inactive) | 37.5 µM (inactive) | 39.4 µM (inactive) | 31.3 µM | 52.7 µM (inactive) | > 100 µM (inactive) | 67.1 µM (inactive) | 44 µM (inactive) | > 100 µM (inactive) | 29.6 µM (inactive) | 65.6 µM (inactive) | 94.2 µM (inactive) | 51.9 µM (inactive) | 22.6 µM (inactive)
O=C1C=CC(=O)N1n1c(-c2ccccc2)n[nH]c1=O | > 100 µM (inactive) | > 100 µM (inactive) | > 100 µM (inactive) | – | > 100 µM (inactive) | > 100 µM (inactive) | – | – | > 100 µM (inactive) | > 100 µM | > 100 µM (inactive) | > 100 µM (inactive) | > 100 µM (inactive) | > 100 µM (inactive) | > 100 µM (inactive) | > 100 µM (inactive) | > 100 µM (inactive) | > 100 µM (inactive) | > 100 µM (inactive) | > 100 µM (inactive)
